Key:
Trypanosoma cruzi = test: Antitrypanosomal activity against Trypanosoma cruzi infected in human MRC-5 SV2 cells; format: functional, organism-based
[1] = tested on: Trypanosoma brucei brucei; test: Antitrypanosomal activity against Trypanosoma brucei brucei; format: functional, organism-based
[2] = tested on: Trypanosoma brucei rhodesiense; test: Antitrypanosomal activity against Trypanosoma brucei rhodesiense; format: functional, organism-based
Leishmania infantum = test: Antileishmanial activity against Leishmania infantum infected in mouse primary macrophages; format: functional, organism-based; details: Primary macrophage
[3] = Cytotoxicity against human MRC-5 SV2 cells assessed as reduction in cell viability; format: cell-based
[4] = Cytotoxicity against mouse primary macrophages assessed as reduction in cell viability; format: cell-based, Macrophage

| Compound | IC50 (Trypanosoma cruzi) [µM] | IC50 [1] [µM] | IC50 [2] [µM] | IC50 (Leishmania infantum) [µM] | CC50 [3] [µM] | CC50 [4] [µM] |
| --- | --- | --- | --- | --- | --- | --- |
| O=C(Cn1ccnc1[N+](=O)[O-])NCc1ccccc1 [BENZNIDAZOLE] | 2.02 |  |  |  |  |  |
| O=c1[nH]cnn2c([C@@H]3O[C@H](CO)[C@@H](O)[C@H]3O)cnc12 | 0.6 | 0.5 | 3.01 | 3.17 | > 64 | > 64 |
| OC[C@H]1O[C@@H](c2cnn3c(O)ncnc23)[C@H](O)[C@@H]1O | 10.1 | 17.2 | 36.7 | 34.2 | > 64 | > 64 |
| N#C[C@@]1(c2ccc3c(N)ncnn23)O[C@H](CO)[C@@H](O)[C@H]1O [GS-441524] | > 64 | 8.91 | 0.58 | > 64 | > 64 | > 64 |
| CCCCCCCCCCCCCCCCOP(=O)([O-])OCC[N+](C)(C)C [MILTEFOSINE] |  |  |  | 7.47 |  |  |
| Nc1ncnn2c([C@@H]3O[C@H](CO)[C@@H](O)[C@H]3O)cc(Br)c12 | 0.78 | 1.69 | 0.14 | 1.13 | ≥ 11.8 | 2 |
| Nc1ncnc2c([C@@H]3O[C@H](CO)[C@@H](O)[C@H]3O)cnn12 | 3.81 | 24.8 | 33.8 | 21.9 | 9.32 | > 64 |
| O=c1[nH]cnn2c([C@@H]3O[C@H](CO)C[C@H]3O)ccc12 | > 64 | > 64 | 33.8 | > 64 | > 64 | > 64 |
| Cc1ccc(C(=O)Nc2ccc(S(=O)(=O)O)c3cc(S(=O)(=O)O)cc(S(=O)(=O)O)c23)cc1NC(=O)c1cccc(NC(=O)Nc2cccc(C(=O)Nc3cc(C(=O)Nc4ccc(S(=O)(=O)O)c5cc(S(=O)(=O)O)cc(S(=O)(=O)O)c45)ccc3C)c2)c1 [SURAMIN] |  |  | 0.04 |  |  |  |
| O=c1[nH]cnn2c([C@@H]3O[C@H](CO)[C@@H](O)[C@H]3O)cc(Br)c12 | > 64 | 30.9 | 20 | > 64 | > 64 | > 64 |
| N#C[C@@]1(c2cc(Br)c3c(N)ncnn23)O[C@H](CO)[C@@H](O)[C@H]1O | 39.3 | 13 | 1.58 | 32.5 | 11 | 32 |
| Nc1ncnn2c([C@@H]3O[C@H](CO)C[C@H]3O)cc(-c3ccc(Cl)cc3)c12 | 0.23 | 3.53 | 1.65 | 23.3 | ≥ 22.3 | 24 |
| Nc1ncnn2c([C@@H]3O[C@H](CO)[C@@H](O)[C@H]3O)cc(-c3ccc(Cl)cc3)c12 | 0.54 | 3.89 | 3.71 | 236 | 10.8 | 5 |
| Nc1ncnn2c([C@@H]3O[C@H](CO)[C@@H](O)[C@H]3O)cc(-c3ccc(Cl)c(F)c3)c12 | 2.45 | 6.78 | 5.98 | ≥ 40.3 | ≥ 40.3 | > 64 |
| O=c1[nH]cnn2c([C@@H]3O[C@H](CO)[C@@H](O)[C@H]3O)ccc12 | 7.67 | 3.53 | 7.06 | 5.66 | 49.4 | > 64 |
| Nc1ncnc2c([C@@H]3O[C@H](CO)[C@@H](O)[C@H]3O)cn(-c3ccc(Cl)c(F)c3)c12 | 1.04 | 40.3 | 29 | > 64 | > 64 | > 64 |
| Nc1ncnc2c([C@@H]3O[C@H](CO)[C@@H](O)[C@H]3O)cn(-c3ccc(Cl)cc3)c12 | 0.34 | 26.9 | 26.2 | > 64 | > 64 | > 64 |
| Nc1ncnn2c([C@@H]3O[C@H](CO)[C@@H](O)[C@H]3O)ccc12 | < 0.25 | < 0.25 | < 0.25 | < 0.25 | < 0.25 | < 0.25 |
| Nc1ncnc2c([C@@H]3O[C@H](CO)[C@@H](O)[C@H]3O)cn(-c3ccc(Br)cc3)c12 | 0.46 | 41.8 | 28.9 | ≥ 50.8 | > 64 | > 64 |
| Nc1nccn2c([C@@H]3O[C@H](CO)C[C@H]3O)cnc12 | > 64 | > 64 | 55.7 | > 64 | > 64 | > 64 |
| Nc1ncnn2c([C@@H]3O[C@H](CO)[C@@H](O)[C@H]3O)cnc12 | 0.62 | < 0.25 | 2 | 5.15 | 1.41 | 32 |
| N#C[C@]1(c2ccc3c(N)ncnn23)O[C@H](CO)[C@@H](O)[C@H]1O | > 64 | 10.3 | 1.77 | > 64 | > 64 | > 64 |
| Nc1nccn2c([C@@H]3O[C@H](CO)[C@@H](O)[C@H]3O)cnc12 | > 64 | > 64 | 0.81 | > 64 | > 64 | > 64 |
